Laboratory results as given in US11571397B2, “Compositions and methods for treating seizure-induced sudden death” (ZOGENIX INTERNATIONAL LIMITED, priority 2018, dated 2023).

Key:
Dravet syndrome patients = settings: cited from earlier work
DBA/1 mice = assay: AGSz and S-IRA in DBA/1 mice, 8-hour testing protocol; type: in vivo, mouse
Source text: The typical seizure semiology in the DBA/1 mice begins with a wild running phase, followed by clonic-tonic seizures and then tonic hind-limb extension that immediately leads to S-IRA during post-ictal behavioral depression (PID). The onset of S-IRA was visually determined by the occurrence of respiratory failure following loss of the righting reflex, relaxation of the pinnae, and then a generalized loss of muscle tone. These behaviors are reliable indicators of imminent sudden death in DBA mice. Resuscitation was initiated within 10 s after pinna relaxation and the generalized loss of muscle tone, which was effective in reversing S-IRA and reviving >90% of the mice. The mice were placed in a supine position, and a polyethylene tube (4.4 mm external diameter) connected to the outflow of a rodent respirator (Harvard Apparatus 680), pumping one cc of room air at 200 strokes/min, was the placed over the nostrils, which produced observable displacement of the chest. Respiratory support was provided until spontaneous breathing rhythm returned, which required ˜19 sec. The mice were monitored until they regained the righting reflex and then returned to their home cage. Video recordings of seizure behaviors and recovery were made for off-line evaluation and analysis, including the duration of PID, as indicated by time from muscle tone loss to return of the righting reflex.
The experiments herein disclosed examined the dose-response relationship of FFA (10-40 mg/kg, i.p.) on AGSz-induced behaviors in DBA/1 mice compared to vehicle (saline) treated control mice using different seizure-testing protocols. This initial protocol involved induction of AGSz at 30 min, 12 h and 24 h after drug administration, and subsequently at 24 h intervals until susceptibility to S-IRA returned. These studies were aimed at determining whether FFA can reduce the incidence (frequency) and severity of AGSz and susceptibility to S-IRA. […] To determine the effect of FFA on the severity of AGSz in DBA/1 mice, the ordinal scoring system of De Sarro and coworkers was used: no seizure=0; wild running=1; clonic seizure=2; tonic seizure=3; death/S-IRA=4. The median effective dose (ED50) for FFA for blocking AGSz at 30 min following the i.p. injection in DBA/1 mice was calculated using a second order polynomial equation (y=65.113x^2-2.0715x-63.578) that gave the best fit (R^2=0.9989).
The videos of seizure behaviors were analyzed visually, and the incidence (frequency) of AGSz, seizure severity, and incidence (frequency) of S-IRA following drug treatment were compared statistically to vehicle controls using the Chi-square, Mann-Whitney U or paired samples t-test with SPSS software. The ED50 was calculated using SigmaPlot 13 and Microsoft® Excel. The experimental protocols used in these studies were approved by the Laboratory Animal Care and Use Committee of Southern Illinois University School of Medicine, which are in accordance with National Institutes of Health guidelines for the care and use of laboratory animals. Measures to minimize animal usage as well as pain and discomfort were included in these procedures.
FIGS. 2A through 2D show a time-course of selective S-IRA blocking effect of FFA in DBA/1 mice (8 h testing protocol). The 8-h testing protocol during the first 24 h was employed in the next group of studies of the effect of 5-20 mg/kg (i.p.) doses of FFA. […] The severity of AGSz remained unaffected in the mice that received 5 (light horizontal line bars; n=9) mg/kg FFA. A significant return of AGSz severity among the FFA treated DBA/1 mice occurred by 24 h. [**p<0.01; #p<0.001 indicate statistically different from controls, Mann-Whitney U test].

CCNC(C)Cc1cccc(C(F)(F)F)c1 (racemic) [FFA, 3-trifluoromethyl-N-ethylamphetamine]
frequency and/or severity of intractable seizures (Dravet syndrome patients): significantly reduced
blocking any AGSz behavior (DBA/1 mice; 5 mg/kg): ineffective
effect against tonic seizures (DBA/1 mice; 5 mg/kg): ineffective
incidence of S-IRA (DBA/1 mice; 5 mg/kg): not affected
severity of AGSz (DBA/1 mice; 5 mg/kg): unaffected
mice with selective blockade of S-IRA among those that showed tonic AGSz (DBA/1 mice; 15 mg/kg, 16 h time point (n=5)): 100%
total incidence of selective S-IRA blockade (DBA/1 mice; 15 mg/kg, during time-course studies): 70%
median AGSz severity scores (DBA/1 mice; 10, 15 and 20 mg/kg i.p., starting at 8 h, vs saline): significant reduction
incidence of S-IRA (DBA/1 mice; 10, 15 and 20 mg/kg, starting at 8 h, vs saline): significant reduction
return of susceptibility to tonic seizures (DBA/1 mice; 10-20 mg/kg): 16 to 48 h
incidence of tonic seizures (DBA/1 mice; 10-20 mg/kg, at 8 h, vs saline): significantly reduced
duration of PID (loss of righting reflex) (DBA/1 mice; 16 h after 15 mg/kg, mice with selective S-IRA blockade, pre-drug 168.6±43.4 s): 34.6 ± 13.3 s
return of AGSz severity (DBA/1 mice; FFA treated mice, 8-h protocol): ≤ 24 h
return of S-IRA susceptibility (DBA/1 mice; FFA treated mice, 8-h protocol): 48 h
